Experimental data: US8518979B2, “Alpha-halo- and alpha-alkyl-cyclopropylcarboxy compounds and uses thereof” (Yissum Research Development Company of the Hebrew …, priority 2007, dated 2013)
“And” between values parts separate entries of the source, which are not always exact repeats. Equal values may be shown once. Read-outs that look alike come from different tables or passages of the source.

Columns and labels:
[1] = test system: hippocampal kindled seizures; test: Hippocampal kindling assay in rats; format: in vivo; settings: Rattus norvegicus
Method: In a third model, the hippocampal kindling assay was used to identify new drug candidates effective for the treatment of difficult-to-control seizure types, focal seizures and complex partial seizures, as well as compounds that may be effective as mood stabilizer for treating bipolar disorder, and was conducted according to the protocol described therein.
Briefly, this test was conducted by using a bipolar stimulating electrode which was implanted in the hippocampus of rats, and the rats were kindled according to a described method. One week after implantation of the electrodes, the rats were stimulated with supra-threshold trains of 200 μA and 50 Hz for 10 seconds every 30 minutes for 6 hours on alternate days until the animals were fully kindled. […] The behavioral seizures were scored according to the following criteria (“seizure score”): stage 1—mouth and facial clonus; stage 2—stage 1 plus head nodding; stage 3—stage 2 plus forelimb clonus; stage 4—stage 3 plus rearing; and stage 5—stage 4 plus repeated rearing and falling.

[2] = test system: 6 Hz (32 mA) seizures; test: Psychomotor seizure (6 Hz, 32 mA) assay in mice; format: in vivo; settings: Mus musculus
[3] = test system: 6 Hz (44 mA) seizures; test: Psychomotor seizure (6 Hz, 44 mA) assay in mice; format: in vivo; settings: Mus musculus
[4] = test system: minimal neurotoxicity; test: Neurotoxicity (gait and stance assay, TD50) in rats; format: in vivo, rat; settings: for Toxicity, fraction of rats: rat p.o, 50 mg/kg
Method: (§1) Neurotoxicity assays are design to assess the effect of putative neurotoxicants on the normal activity of the nervous system, which can adversely disrupt or cause neuronal death, and damage other parts of the nervous system. The median neurological toxic dose (TD50) is used for quantization of neurotoxicity.
The neurotixicity studies were conducted according to the protocol described in White, H. S., et al., in “General principles. Discovery and preclinical development of antiepileptic drugs”, 5th edition, Levy R H, Mattson R H, Meldrum B S, Perucca E. (editors); Antiepileptic drugs; Lippincott-Raven; Philadelphia: 2002. pp. 36-48.
Neurotoxicity of the α-halo-2,2,3,3-tetramethylcyclopropanecarboxy compounds of the present embodiments was assessed in rats treated therewith by oral administration and observed in the “gait and stance” assay, which assesses minimal neurotoxicity. The neurotoxicity studies were conducted according to the protocol described in White H S. et al., General principles-Discovery and preclinical development of antiepileptic drugs, in: Antiepileptic Drugs, 5th edition, R H Wilkins, Philadelphia 2002, pp. 36-48.

[5] = test system: motor impairment; test: Toxicity observed in mice (6 Hz 44 mA test line of Table 3); format: in vivo
Source text: as §1

[6] = test system: metrazole induced clonic seizures; test: Subcutaneous metrazol seizure threshold test (scMet) in rats; settings: for ED50: Rattus norvegicus; for Fraction of rats which responded to the treatment: scMet rat model; for ScMet, fraction of rats: rat p.o, 50 mg/kg
[7] = test system: maximal electroshock induced seizures (tonic hind limb extension); test: Maximal electroshock seizure test (MES) in rats; format: in vivo; settings: rat p.o, 50 mg/kg
[8] = test system: neuropathic pain; settings: spinal nerve ligated rat models; cited from earlier work
[9] = test system: metrazole induced clonic seizures; settings: cited from earlier work; for protective index (TD50/ED50): comparison compounds, seizure model not stated
[10] = test system: minimal neurotoxicity; settings: cited from earlier work
[11] = test system: maximal electroshock induced seizures (tonic hind limb extension); settings: cited from earlier work
[12] = test system: maximal electroshock induced seizures; settings: mice models injected intraperitoneally; cited from earlier work
[13] = test system: teratogenicity; test: Mouse model for VPA-induced teratogenicity; settings: unpublished results
[14] = rat scMet models, literature comparison

**Q.** Which ED50 [1] does the source give for `CC1(C)C(C)(C)C1(F)C(N)=O` [Compound 1, α-fluoro-2,2,3,3-tetramethylcyclopropanecarboxamide] here?
**A.** 29.5 mg/kg and 180 µmol/kg

**Q.** What about the ED50 [2] of the same compound?
**A.** < 50 mg/kg and < 310 µmol/kg

**Q.** And the ED50 [3]?
**A.** ~50 mg/kg and ~310 µmol/kg

**Q.** What about the “Toxicity (TD50)” value ([4]; rats, oral administration) of the same compound?
**A.** 117 mg/kg

**Q.** What about the Toxicity [5] of the same compound?
**A.** Minimal motor

**Q.** What about the ED50 ([6]; po) of the same compound?
**A.** 6 mg/kg and 40 µmol/kg

**Q.** What about the “protective index (TD50/ED50)” value ([6]; rat, in vivo, po) of the same compound?
**A.** 19.5

**Q.** And the “Fraction of rats which responded to the treatment” value (from here on “Fraction of rats which responded”) ([6]; dose 2 mg/kg)?
**A.** 0/8

**Q.** And the “Fraction of rats which responded” value ([6]; dose 6 mg/kg)?
**A.** 5/8

**Q.** And the “Fraction of rats which responded” value ([6]; dose 12.5 mg/kg)?
**A.** 6/8

**Q.** And the “Fraction of rats which responded” value ([6]; dose 25 mg/kg)?
**A.** 8/8

**Q.** Which results are given for `CC1(C)C(C)(C)C1(C)C(N)=O` [Compound 4, 1,2,2,3,3-pentamethylcyclopropanecarboxamide]?
**A.** MES, fraction of rats ([7]; 0.25 hours after dosing): 0/4; MES, fraction of rats ([7]; 0.5 hours after dosing): 0/4; MES, fraction of rats ([7]; 1.0 hours after dosing): 0/4; MES, fraction of rats ([7]; 2.0 hours after dosing): 0/4; MES, fraction of rats ([7]; 4.0 hours after dosing): 0/4; Toxicity, fraction of rats ([4]; 0.25 hours after dosing): 0/4; Toxicity, fraction of rats ([4]; 0.5 hours after dosing): 0/4; Toxicity, fraction of rats ([4]; 1.0 hours after dosing): 0/4; Toxicity, fraction of rats ([4]; 2.0 hours after dosing): 0/4; Toxicity, fraction of rats ([4]; 4.0 hours after dosing): 0/4; ED50 ([6]; sc, read-out: ED50 (not determined quantitatively, estimated)): < 50 mg/kg; ScMet, fraction of rats ([6]; 0.25 hours after dosing): 0/4; ScMet, fraction of rats ([6]; 0.5 hours after dosing): 0/4; ScMet, fraction of rats ([6]; 1.0 hours after dosing): 1/4; ScMet, fraction of rats ([6]; 2.0 hours after dosing): 1/4; ScMet, fraction of rats ([6]; 4.0 hours after dosing): 0/4

**Q.** Which “potency as therapeutic for neuropathic pain” value [8] does the source give for `CNC(=O)C1C(C)(C)C1(C)C` [Compound IV, N-methyl-2,2,3,3-tetramethylcyclopropanecarboxamide] here?
**A.** equipotent to GABApentin

**Q.** And the “protective index (TD50/ED50)” value [9]?
**A.** 2

**Q.** What about the neurotoxicity ([10]; rat, in vivo) of the same compound?
**A.** non-neurotoxic

**Q.** For `CONC(=O)C1C(C)(C)C1(C)C` [Compound VI, N-methoxy-2,2,3,3-tetramethylcyclopropanecarboxamide], which ED50 ([11]; MES tests, rats injected intraperitoneally) is on record?
**A.** 57 mg/kg

**Q.** And the ED50 ([9]; scMet tests, rats injected intraperitoneally)?
**A.** 9.8 mg/kg

**Q.** What does the source list for `CC1(C)C(C(=O)Nc2nnc(S(N)(=O)=O)s2)C1(C)C` [Compound VII, N-(1,3,4-thiadiazole-2-sulfonamide)-2,2,3,3-tetramethylcyclopropanecarboxamide]?
**A.** MES-ED50 ([11]; orally treated rat models): 9.2 mg/kg; MES-ED50 [12]: 17 mg/kg; neurotoxicity ([10]; at 500 mg/kg doses): none-neurotoxic; teratogenicity [13]: teratogenic

**Q.** For `CC1(C)C(C(=O)NCC(N)=O)C1(C)C` [N-2,2,3,3-tetramethylcyclopropylcarbonyl-glycinamide], which “protective index (TD50/ED50)” value [9] is on record?
**A.** higher than 6.1

**Q.** What about the ED50 [9, 14] of the same compound?
**A.** greater than 250 mg/kg

**Q.** And the TD50 ([10]; oral administration to rats, literature comparison)?
**A.** above 500 mg/kg

**Q.** For `CC1(C)C(C(=O)NC(N)=O)C1(C)C` [TMC-Urea, 2,2,3,3-tetramethylcyclopropanecarbonyl urea], which “protective index, TD50-to-ED50 ratio” value ([11]; maximal electroshock (MES) tests) is on record?
**A.** 18.5

**Q.** And the “protective index (TD50/ED50)” value [9]?
**A.** 18.5

**Q.** What about the ED50 [9, 14] of the same compound?
**A.** 92 mg/kg
